Source: PubChem BioAssay (NCI)
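Test compounds were applied to cells in 96-well plates for 48 hours at 5 doses. The concentration for 50% growth inhibition is given as GI50. Definition used: TGI = concentration required for complete inhibition of growth.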 Where a SMILES comes first, the peptide text is derived from it. The star is where a group is joined. Ethyl(2-NMe3+) = C[N+](C)(C)CC*; Boc = CC(C)(C)OC(=O)*

Legend:
Experiment in all cases: growth of human tumour cells (NCI), 48 h
[1] = tested on: SF-295 CNS
[2] = tested on: SK-OV-3 ovarian
[3] = tested on: COLO 205 colon
[4] = tested on: KM12 colon
[5] = tested on: SF-539 CNS
[6] = tested on: NCI-H23 lung
[7] = tested on: HCT-15 colon
[8] = tested on: IGROV1 ovarian
[9] = tested on: DU-145 prostate
[10] = tested on: SNB-19 CNS
[11] = tested on: UACC-257 melanoma
[12] = tested on: HOP-62 NSCLC
[13] = tested on: OVCAR-4 ovarian
[14] = tested on: MDA-N
[15] = tested on: MALME-3M melanoma
[16] = tested on: SK-MEL-28 melanoma

Compound | TGI [1] [µM] | TGI [2] [µM] | TGI [3] [µM] | TGI [4] [µM] | TGI [5] [µM] | TGI [6] [µM] | TGI [7] [µM] | TGI [8] [µM] | TGI [9] [µM] | TGI [10] [µM] | TGI [11] [µM] | TGI [12] [µM] | TGI [13] [µM] | TGI [14] [µM] | TGI [15] [µM] | TGI [16] [µM] | GI50 [13] [µM] | GI50 [16] [µM]
CCOc1cc2c(cc1O)CC[C@@H]1[C@@H]2CC[C@]2(C)C(N)CC[C@@H]12 (stereo not given in full) | 12.5 | 17.6 | 17.3 | 8.03 | 9.25 | 16.7 | 13.8 | 12.6 | 7.08 | 28.2 | 16.3 | 40.4 | 58.7 | 3.6 | 28.2 | 23.6 | – | –
COc1ccc(N2C(=O)C(C)SC2c2cc3cc(Br)ccc3nc2Cl)cc1 (stereo not given) | > 100 | > 100 | > 100 | > 100 | 55.7 | > 100 | > 100 | > 100 | > 100 | > 100 | > 100 | > 100 | > 100 | > 100 | > 100 | > 100 | – | –
Nc1nc2n[nH]nc2c(=O)[nH]1 | > 33.1 | 9.21 | 24.3 | > 100 | 1.96 | > 100 | > 100 | > 100 | > 57.5 | > 100 | 56.2 | 9.42 | > 100 | 15.4 | 16.8 | 9.4 | – | –
Cc1c2c(Cl)c3c(c(Cl)c2c(C)c2c(Cl)c4c(c(Cl)c12)C(c1ccccc1)(c1ccccc1)C4(c1ccccc1)c1ccccc1)C(c1ccccc1)(c1ccccc1)C3(c1ccccc1)c1ccccc1 | > 100 | > 100 | > 100 | > 100 | > 100 | > 100 | > 100 | > 100 | > 100 | > 100 | > 100 | > 100 | > 100 | > 100 | > 100 | > 100 | – | –
Oc1ccc(Cc2nccc3cc(O)c(O)cc23)cc1O | > 100 | > 100 | 51.3 | > 100 | > 100 | > 100 | > 100 | > 100 | > 100 | > 100 | 87.6 | > 100 | > 100 | > 100 | > 100 | > 100 | – | –
CC(=O)c1cccc(Nc2nc3ccc(Cl)cc3c3[nH]c4ccccc4c23)c1 | 11.1 | 15.9 | 12.8 | > 100 | 30.1 | > 73.8 | > 100 | > 48.6 | 26.8 | 48.6 | > 88.2 | 15.4 | 21.5 | > 100 | > 100 | > 100 | 3.56 | 16.5
CC1=C(C)C1[N+](=O)[O-] | > 100 | > 100 | > 100 | > 100 | > 100 | > 100 | > 100 | > 100 | > 100 | > 100 | > 100 | > 100 | > 100 | > 100 | > 100 | > 100 | – | –
COc1ccc2c(c1)-c1[nH]c3ccc(OC)cc3c1CC2 | 26.3 | 33.8 | 37.4 | 19 | 33.7 | 25.8 | 24.8 | 26.8 | 32.9 | 30.1 | 32.4 | 30.9 | 29.4 | 30.2 | 28.7 | 32.4 | – | –
CC(C)(C)OC(=O)N1CCC2(C)CC(=O)CC=C12 (stereo not given) | > 100 | > 100 | > 100 | > 100 | > 100 | > 100 | > 100 | > 100 | > 100 | > 100 | > 100 | > 100 | > 100 | > 100 | > 100 | > 100 | – | –
Cc1ccc(N2CCC3(CC2)OCCO3)cc1 | > 100 | > 100 | > 100 | > 100 | > 100 | > 100 | > 100 | > 100 | > 100 | > 100 | > 100 | > 100 | > 100 | > 100 | > 100 | > 100 | – | –
O=C(Cc1ccc(Cl)cc1)Nc1ccc2oc(-c3ccccc3)nc2c1 | > 100 | > 100 | > 100 | > 100 | > 100 | > 100 | > 100 | > 100 | > 100 | > 100 | > 100 | > 100 | > 100 | > 100 | > 100 | > 100 | – | –
CC1=NN(C(=O)CC(=O)Nc2ccc(C)cc2)C(=O)C1N=Nc1ccc(S(=O)(=O)c2ccc(N=NC3C(=O)N(C(=O)CC(=O)Nc4ccc(C)cc4)N=C3C)cc2)cc1 (stereo not given) | > 100 | > 100 | > 100 | > 100 | > 100 | > 100 | > 100 | > 100 | > 100 | > 100 | > 100 | > 100 | > 100 | > 100 | > 100 | > 100 | – | –
O=P1(c2ccccc2)C(c2ccccc2)=CC=C1c1ccccc1 | > 100 | > 100 | 46.1 | 50.1 | > 100 | > 100 | 77.3 | > 100 | > 100 | > 100 | > 100 | > 100 | > 100 | 62.1 | > 100 | > 100 | – | –
CC(NC(=O)C(Cc1ccc(OCC[N+](C)(C)C)cc1)NC(=O)OC(C)(C)C)C(=O)NC(Cc1ccccc1)C(=O)NCC(N)=O (stereo not given) (Boc-Y(Ethyl(2-NMe3+))AFG-NH2; configuration not given here) | 17.4 | 22.7 | > 100 | > 100 | 25.5 | 31.8 | > 100 | 58.4 | > 100 | 34.3 | > 100 | 14.5 | > 100 | > 100 | 69.7 | > 100 | – | –
c1ccc2c(c1)cc1c3[nH]c4ccccc4c3ccn21 | > 10 | > 10 | 3.41 | > 10 | > 10 | > 10 | > 10 | > 10 | > 10 | > 10 | > 10 | > 10 | > 10 | > 10 | 4.48 | > 10 | – | –
CCN(CC)c1c(-c2c(N(CC)CC)c(OC(C)=O)c3sccn3c2=O)c(=O)n2ccsc2c1OC(C)=O | > 100 | > 100 | > 100 | > 100 | > 100 | > 100 | > 100 | > 100 | > 100 | > 100 | > 100 | 46.9 | > 100 | > 100 | > 100 | > 100 | – | –
NC(=S)N/N=C1/CCCC2CCCC[C@@H]12 (stereo not given in full) | > 100 | > 100 | > 100 | > 100 | > 100 | > 100 | > 100 | > 100 | > 100 | > 100 | > 100 | > 100 | > 100 | > 100 | > 100 | > 100 | – | –
CC(C)=c1sc(=C(C)C)c2c1=NC(C)(C)N=2 | > 100 | > 100 | > 100 | > 100 | > 100 | > 100 | > 100 | > 100 | > 100 | > 100 | > 100 | > 100 | > 100 | > 100 | > 100 | > 100 | – | –
